Measurements reported in publication PMC2617778, “Discovery of a Novel Activator of KCNQ1-KCNE1 K^+ Channel Complexes” (PLoS ONE, 2009).
One block for each molecule: values may come before it.

What was measured:
Assay type in all cases: cell-based
Q2/Q3 (KCNQ2/3) [1] = target: T1, Q2/Q3 (KCNQ2/3) (Homo sapiens, UniProt O43525+O43526); assay: two-electrode voltage clamp, Xenopus oocytes; tail-current Boltzmann fit; conditions: activator; 10 mM; ND96, pH 7.6
T1 construct: heterotetramer; equal mRNA amounts of both subunits in Xenopus laevis oocytes
Description: two-electrode voltage clamp, Xenopus oocytes; tail-current Boltzmann fit on Q2/Q3 (KCNQ2/3)

[2] = target: T2, Q1/E1 (KCNQ1/KCNE1 complex) (Homo sapiens, UniProt P51787); assay: as above; conditions: reversible activator; 10 mM; ND96, pH 7.6
T2 construct: with Potassium voltage-gated channel subfamily E member 1
Description: two-electrode voltage clamp, Xenopus oocytes; tail-current Boltzmann fit on Q1/E1 (KCNQ1/KCNE1 complex)

[3] = target: T3, Q1/E3 (KCNQ1/KCNE3 complex) (Homo sapiens, UniProt P51787); assay: as above; conditions: activator (raises current, no V1/2 shift); 10 mM; KD50 (50 mM K+), pH 7.6
T3 construct: with Potassium voltage-gated channel subfamily E member 3
T3 sequence (P51787 1-676): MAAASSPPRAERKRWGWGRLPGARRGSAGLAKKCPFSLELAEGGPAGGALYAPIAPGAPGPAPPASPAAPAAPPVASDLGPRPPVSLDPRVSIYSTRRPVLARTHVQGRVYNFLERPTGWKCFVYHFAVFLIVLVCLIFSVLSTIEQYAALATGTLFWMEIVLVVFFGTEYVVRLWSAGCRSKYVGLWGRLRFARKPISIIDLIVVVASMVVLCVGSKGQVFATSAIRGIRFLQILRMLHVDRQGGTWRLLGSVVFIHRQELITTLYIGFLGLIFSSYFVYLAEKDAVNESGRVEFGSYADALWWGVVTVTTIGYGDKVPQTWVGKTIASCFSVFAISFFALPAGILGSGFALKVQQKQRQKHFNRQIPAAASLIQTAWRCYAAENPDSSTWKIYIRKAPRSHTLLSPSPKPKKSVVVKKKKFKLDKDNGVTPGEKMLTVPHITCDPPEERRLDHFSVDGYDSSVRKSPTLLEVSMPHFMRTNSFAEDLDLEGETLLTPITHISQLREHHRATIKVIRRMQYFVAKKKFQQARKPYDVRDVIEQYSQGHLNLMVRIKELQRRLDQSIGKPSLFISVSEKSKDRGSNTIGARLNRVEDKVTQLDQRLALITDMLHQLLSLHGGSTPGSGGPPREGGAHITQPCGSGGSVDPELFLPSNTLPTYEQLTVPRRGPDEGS
T3 sequence (Q9Y6H6 1-103 partner): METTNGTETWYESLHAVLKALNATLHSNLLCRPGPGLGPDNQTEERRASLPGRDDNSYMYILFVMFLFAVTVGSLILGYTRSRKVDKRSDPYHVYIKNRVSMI
Description: two-electrode voltage clamp, Xenopus oocytes; tail-current Boltzmann fit on Q1/E3 (KCNQ1/KCNE3 complex)

[4] = target: T2, Q1/E1 (KCNQ1/KCNE1 complex); assay: two-electrode voltage clamp, Xenopus oocytes; conditions: inhibitor, ND96, pH 7.6, +40 mV, 2 s pulse
KCNQ4 (Q4) = target: T4, KCNQ4 (Q4) (Homo sapiens, UniProt P56696); assay: two-electrode voltage clamp, Xenopus oocytes; delta gmax on washout, hyperbola fit; conditions: read-out: Phenylboronic Acid (PBA) / EC50
T4 construct: homotetramer expressed in Xenopus laevis oocytes
T4 sequence (P56696 1-695): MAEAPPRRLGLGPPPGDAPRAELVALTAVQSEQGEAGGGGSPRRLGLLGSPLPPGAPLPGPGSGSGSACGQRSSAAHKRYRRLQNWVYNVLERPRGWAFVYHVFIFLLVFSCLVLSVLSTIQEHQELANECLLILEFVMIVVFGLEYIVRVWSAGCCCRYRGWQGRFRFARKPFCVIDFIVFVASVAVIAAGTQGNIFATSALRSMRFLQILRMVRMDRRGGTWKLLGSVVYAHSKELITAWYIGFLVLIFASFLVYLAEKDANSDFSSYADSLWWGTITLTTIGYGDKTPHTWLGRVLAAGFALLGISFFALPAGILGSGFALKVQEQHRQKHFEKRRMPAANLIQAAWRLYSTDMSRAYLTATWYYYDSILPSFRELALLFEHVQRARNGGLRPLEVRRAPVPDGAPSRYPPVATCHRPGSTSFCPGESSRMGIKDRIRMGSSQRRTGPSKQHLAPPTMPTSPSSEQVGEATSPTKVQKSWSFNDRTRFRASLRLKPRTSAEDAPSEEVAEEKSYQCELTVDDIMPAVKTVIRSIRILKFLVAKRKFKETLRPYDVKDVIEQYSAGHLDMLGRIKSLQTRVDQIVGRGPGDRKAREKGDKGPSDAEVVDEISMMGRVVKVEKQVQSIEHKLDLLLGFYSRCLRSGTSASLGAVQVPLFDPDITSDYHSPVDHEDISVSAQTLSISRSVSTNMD
Description: two-electrode voltage clamp, Xenopus oocytes; delta gmax on washout, hyperbola fit on KCNQ4 (Q4)

Q2/Q3 (KCNQ2/3) [5] = target: T1, Q2/Q3 (KCNQ2/3); assay: as above; conditions: read-out: Phenylboronic Acid (PBA) / EC50
Description: two-electrode voltage clamp, Xenopus oocytes; delta gmax on washout, hyperbola fit on Q2/Q3 (KCNQ2/3)

T1 sequence (O43526 whole entry): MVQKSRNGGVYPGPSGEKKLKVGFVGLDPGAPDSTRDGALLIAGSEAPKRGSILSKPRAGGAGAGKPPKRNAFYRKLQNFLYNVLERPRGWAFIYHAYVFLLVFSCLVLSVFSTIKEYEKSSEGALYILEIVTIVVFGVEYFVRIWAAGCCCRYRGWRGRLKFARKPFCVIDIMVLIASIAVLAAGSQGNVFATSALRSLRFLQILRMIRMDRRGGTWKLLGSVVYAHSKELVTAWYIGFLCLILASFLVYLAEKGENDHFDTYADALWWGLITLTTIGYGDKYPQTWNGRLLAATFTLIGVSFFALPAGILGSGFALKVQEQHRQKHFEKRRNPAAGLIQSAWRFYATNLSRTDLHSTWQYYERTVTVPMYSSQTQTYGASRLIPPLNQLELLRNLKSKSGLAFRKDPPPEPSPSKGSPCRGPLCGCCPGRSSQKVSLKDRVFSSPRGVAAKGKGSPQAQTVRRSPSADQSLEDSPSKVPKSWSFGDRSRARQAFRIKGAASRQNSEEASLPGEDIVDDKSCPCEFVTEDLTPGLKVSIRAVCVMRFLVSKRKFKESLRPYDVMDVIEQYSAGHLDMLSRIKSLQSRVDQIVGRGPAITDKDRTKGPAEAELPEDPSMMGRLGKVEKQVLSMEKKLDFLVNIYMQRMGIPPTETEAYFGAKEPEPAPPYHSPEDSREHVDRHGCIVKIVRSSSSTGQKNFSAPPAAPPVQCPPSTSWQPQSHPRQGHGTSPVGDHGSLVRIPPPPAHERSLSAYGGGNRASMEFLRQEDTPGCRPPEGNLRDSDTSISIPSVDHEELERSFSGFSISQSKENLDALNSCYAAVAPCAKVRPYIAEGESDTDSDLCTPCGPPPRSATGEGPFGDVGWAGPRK
T1 sequence (O43525 whole entry): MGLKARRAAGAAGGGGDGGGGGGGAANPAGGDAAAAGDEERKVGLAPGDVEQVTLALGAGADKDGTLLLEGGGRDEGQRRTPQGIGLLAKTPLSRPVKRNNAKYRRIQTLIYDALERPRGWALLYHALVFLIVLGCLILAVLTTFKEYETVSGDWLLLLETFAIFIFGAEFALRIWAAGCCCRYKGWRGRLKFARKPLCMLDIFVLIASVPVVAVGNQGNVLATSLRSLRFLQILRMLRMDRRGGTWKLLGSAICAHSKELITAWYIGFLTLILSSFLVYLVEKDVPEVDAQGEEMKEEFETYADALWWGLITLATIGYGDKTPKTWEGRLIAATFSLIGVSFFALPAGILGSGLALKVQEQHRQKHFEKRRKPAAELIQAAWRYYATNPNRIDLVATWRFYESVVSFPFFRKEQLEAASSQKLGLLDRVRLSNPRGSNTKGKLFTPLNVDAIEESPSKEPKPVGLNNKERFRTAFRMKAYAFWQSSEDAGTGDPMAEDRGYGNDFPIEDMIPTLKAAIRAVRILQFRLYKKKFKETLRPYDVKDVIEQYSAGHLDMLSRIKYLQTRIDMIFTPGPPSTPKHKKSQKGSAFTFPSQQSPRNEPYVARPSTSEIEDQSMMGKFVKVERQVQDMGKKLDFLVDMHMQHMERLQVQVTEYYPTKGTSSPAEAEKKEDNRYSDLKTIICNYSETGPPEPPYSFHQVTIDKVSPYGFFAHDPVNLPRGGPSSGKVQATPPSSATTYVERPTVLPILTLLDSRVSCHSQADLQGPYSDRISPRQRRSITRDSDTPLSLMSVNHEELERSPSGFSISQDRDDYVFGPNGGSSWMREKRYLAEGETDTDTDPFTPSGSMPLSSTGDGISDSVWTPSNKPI

Phenylboronic Acid (PBA) / Δ V1/2 (mV) (Q2/Q3 (KCNQ2/3) [1]): −5.9±2.9 mV
Phenylboronic Acid (PBA) / Δ V1/2 (mV) [2]: −4.4±2.4 mV
Phenylboronic Acid (PBA) / Δ V1/2 (mV) [3]: 2.7±4.9 mV
Compound: OCc1ccccc1 [benzyl alcohol]

Compound: O=C(O)c1ccccc1 [benzoic acid]
reversible inhibition at 10 mM [4]: Perfusion of benzoic acid reversibly inhibited Q1/E1

EC50 (KCNQ4 (Q4)): > 10 mM
EC50 (Q2/Q3 (KCNQ2/3) [5]): 3.7 ± 1.4 mM
Compound: OB(O)c1ccccc1 [PBA, phenylboronic acid]
